In patent US10196393B2, “JAK inhibitors containing a 4-membered heterocyclic amide” (THERAVANCE BIOPHARMA R&D IP, LLC, priority 2017, dated 2019):
Where two headings read alike, the source gives them in different places.

Experiments:
[1] = system: IL-27 induced CXCL10 and CXCL9 secretion in EpiAirway tissue cultures; assay: Inhibition of IL-27 induced chemokines CXCL9 and CXCL10 in human 3D airway cultures; type: cell-based; settings: 192 h, Day 8, ±STDV
Procedure: Assay 7: Inhibition of IFNγ and IL-27 Induced Chemokines CXCL9 and CXCL10 in Human 3D Airway Cultures
EpiAirway tissue cultures were obtained from Mattek (AIR-100). Cultures were derived from asthmatic donors. In a cell culture insert, human derived tracheal/bronchial epithelial cells were grown and differentiated on a porous membrane support, allowing an air-liquid interface with warmed culture medium below the cells and a gaseous test atmosphere above. Tissues were cultured in maintenance media (Mattek, AIR-100-MM) in a 37° C., 5% CO2 humidified incubator. Four donors were tested. On Day 0, tissue cultures were treated with test compounds at 10 μM, 1 μM and/or 0.1 μM. Compounds were diluted in dimethyl sulfoxide (DMSO, Sigma) to a final concentration of 0.1%. DMSO at 0.1% was used as a vehicle control. Test compounds were incubated with cultures for 1 hour at 37° C., 5% CO2, followed by the addition of pre-warmed media containing IFNγ (R&D Systems) or IL-27 (R&D Systems) at a final concentration at 100 ng/ml. Tissue cultures were maintained for 8 days. Media was replaced every 2 days with fresh media containing compounds and IFNγ or IL-27. On Day 8, tissue cultures and supernatants were collected for analysis. Supernatant samples were assayed for CXCL10 (IP-10) and CXCL9 (MIG) using luminex analysis (EMD Millipore). Data is expressed as % Inhibition +/−standard deviation (±STDV). Percent inhibition was determined by compound inhibitory potency against IFNγ or IL-27 induced CXCL10 or CXCL9 secretion compared to vehicle treated cells. Data is the average from 3 or 4 donors. […] The compound of example 2 was able to inhibit IFNγ induced CXCL9 secretion by 93%±13 (at 10 μM) and 24%±49 (at 1 μM) when compared to vehicle.

[2] = system: IL-13 induced pSTAT6 induction in lung tissue; assay: Murine model of IL-13 induced pSTAT6 induction in lung tissue; type: in vivo; settings: mouse lung, 1 mg/mL 50 μL oral aspiration, IL-13 challenge 4 h after dose, lungs at 5 hours
From the text: Assay 4: Murine (Mouse) Model of IL-13 Induced pSTAT6 Induction in Lung Tissue
Il-13 is an important cytokine underlying the pathophysiology of asthma (Kudlacz et al. Eur. J. Pharmacol, 2008, 582,154-161). IL-13 binds to cell surface receptors activating members of the Janus family of kinases (JAK) which then phosphorylate STAT6 and subsequently activates further transcription pathways. In the described model, a dose of IL-13 was delivered locally into the lungs of mice to induce the phosphorylation of STAT6 (pSTAT6) which is then measured as the endpoint.
Adult balb/c mice from Harlan were used in the assay. On the day of study, animals were lightly anesthetized with isoflurane and administered either vehicle or test compound (1 mg/mL, 50 μL total volume over several breaths) via oral aspiration. Animals were placed in lateral recumbency post dose and monitored for full recovery from anesthesia before being returned to their home cage. Four hours later, animals were once again briefly anesthetized and challenged with either vehicle or IL-13 (0.03 μg total dose delivered, 50 μL total volume) via oral aspiration before being monitored for recovery from anesthesia and returned to their home cage. One hour after vehicle or IL-13 administration, lungs were collected for both pSTAT6 detection using an anti-pSTAT6 ELISA (rabbit mAb capture/coating antibody; mouse mAb detection/report antibody: anti-pSTAT6-pY641; secondary antibody: anti-mouse IgG-HRP) and analyzed for total drug concentration as described above in Assay 3.
Selected compounds of the invention were tested in the assay. Activity in the model is evidenced by a decrease in the level of pSTAT6 present in the lungs of treated animals at 5 hours compared to the vehicle treated, IL-13 challenged control animals. The difference between the control animals which were vehicle-treated, IL-13 challenged and the control animals which were vehicle-treated, vehicle challenged dictated the 0% and 100% inhibitory effect, respectively, in any given experiment.

[3] = read-out: % inhibition of IL-27 induced CXCL9 secretion
[4] = read-out: % inhibition of IL-27 induced CXCL10 secretion

With `CCc1cc(O)c(F)cc1-c1ccc2c(-c3nc4c([nH]3)CN(C(C)C)[C@H](C(=O)N3CC(N(C)C)C3)C4)n[nH]c2c1` [Example 2, (S)-(3-(dimethylamino)azetidin-1-yl)(2-(6-(2-ethyl-5-fluoro-4-hydroxyphenyl)-1H-indazol-3-yl)-5-isopropyl-4,5,6,7-tetrahydro-3H-imidazo[4,5-c]pyridin-6-yl)methanone] as the compound, how does the inhibition at 0.1 µM [1, 3] read?
The inhibition at 0.1 µM was 57%.

And the inhibition at 0.1 µM [1, 4]?
The inhibition at 0.1 µM was 69%.

And the inhibition at 1 µM [1, 3]?
The inhibition at 1 µM was 97%.

And the inhibition at 1 µM [1, 4]?
The inhibition at 1 µM was 101%.

What about the inhibition at 10 µM [1, 3] of the same compound?
Its inhibition at 10 µM is 100%.

What about the inhibition at 10 µM [1, 4] of the same compound?
The inhibition at 10 µM was 108%.

What about the “pSTAT6 inhibition Assay 4” value [2] of the same compound?
The value was “B (B represents between 40% and 60% inhibition)”.
